Assay results as given in patent US6548540B2, “Method of treating cancer using dithiocarbamate derivatives” (Charlotte-Mecklenburg Hospital Authority, priority 1998, dated 2003).

How the values were obtained:
[1] = molecular target: T1, transcription factor binding to CRE (ATF2 containing complex II) (Homo sapiens, UniProt P15336); assay: EMSA, agents added directly to binding reaction; conditions: for transcription factor binding to CRE: DTT 2.5 mM; for transcription factor binding to CRE, effect with GSH instead of DTT: GSH 3.0 mM as reducing agent
T1 construct: endogenous in cells; host or cells: M1619 human melanoma cells, crude nuclear protein extract
T1 sequence (P15336 1-505): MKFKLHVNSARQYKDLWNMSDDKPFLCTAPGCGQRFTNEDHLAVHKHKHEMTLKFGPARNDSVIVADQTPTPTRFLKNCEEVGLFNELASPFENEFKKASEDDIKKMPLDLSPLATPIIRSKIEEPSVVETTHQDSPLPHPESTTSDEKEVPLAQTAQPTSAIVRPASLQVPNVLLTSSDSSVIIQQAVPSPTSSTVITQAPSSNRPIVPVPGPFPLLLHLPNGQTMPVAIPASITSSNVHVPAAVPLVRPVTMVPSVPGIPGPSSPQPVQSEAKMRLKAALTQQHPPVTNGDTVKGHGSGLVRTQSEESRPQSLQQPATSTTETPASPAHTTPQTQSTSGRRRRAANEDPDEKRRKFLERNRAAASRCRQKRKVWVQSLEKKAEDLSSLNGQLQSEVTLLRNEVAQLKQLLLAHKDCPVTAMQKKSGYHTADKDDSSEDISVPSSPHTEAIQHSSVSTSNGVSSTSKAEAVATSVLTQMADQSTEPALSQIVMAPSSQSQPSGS
Protocol: This dose was chosen to approximate the steady state plasma and tissue concentrations of drug in human subjects on chronic therapy with this agent. Disulfiram was solubilized in dimethylsulfoxide (DMSO) so that the final concentration of DMSO was less than 0.3-0.5%. Equal volumes of DMSO were added to control experiments. Nuclear protein was harvested and electrophoretic mobility gel shift assays were performed using DNA consensus binding sequence for the cyclic-AMP responsive element (CRE) as outlined below. […] EMSAs were performed using consensus oligonucleotides ([NT] and 3'-[NT]5') for the cyclic-AMP responsive element CRE (ProMega, Madison, Wis.), end-labeled by phosphorylation with [γ^32P]-ATP and T4 polynucleotide kinase. DNA-protein binding reactions were performed with 2 μg of nuclear protein (as determined by the Pierce method) and 30-80,000 cpm of ^32P-end-labelled double-stranded DNA probe in 10 mM Tris-HCl, pH 7.5, 50 mM NaCl, 0.5 mM EDTA, 0.5 mM DTT (except where indicated), 1 mM MgCl2, 50 μg/ml poly dI-dC, and 4% glycerol. All components of the binding reaction with the exception of labeled probe were combined and incubated at room temperature for 10 minutes before addition of labeled probe and incubation for an additional 20 minutes. To determine if inhibition of transcription factor binding to CRE could be attributed to direct transcription factor modification by disulfiram and copper, we studied the effect of adding each agent directly to the binding reaction performed with nuclear protein from untreated […] cells. Therein electrophoretic mobility shift assays (EMSAs) were performed showing that addition of disulfiram plus copper to the binding reaction reduces DNA binding to CRE. […] In lanes 1-5, DTT (2.5 mM) was added to the binding reaction as a reducing agent, whereas in lane 6-9, GSH (3.0 mM) was used.

[2] = system: p21WAF1/CIP1; assay: Immunoblot for p21WAF1/CIP1; assay type: cell-based, human; conditions: cell lines studied; data not shown
Protocol: Cells were lysed and proteins were isolated and quantitated by immunoassay as previously detailed using 2 μg/ml of primary rabbit polyclonal antibodies against human bcl-2, p53, p21^WAF1/CiP1, cyclin A and cyclin B1, and peroxidase-labeled donkey polyclonal anti-rabbit IgG. Cells were placed on ice, washed twice with cold DPBS, scraped into 0.5 ml boiling buffer (10% [vol/vol] glycerol and 2% [wt/vol] sodium dodecyl sulfate [SDS] in 83 mM Tris, pH 6.8) and sheared by four passages through a pipette. Aliquots were removed for protein determination, using the BCA protein assay (Pierce). After 10% β-mercaptoethanol and 0.05% bromophenol blue were added, lysates were boiled for 5 min and stored at −80° C. until immunoblotting was performed. Proteins in defrosted samples were separated by SDS-polyacrylamide gel electrophoresis on 12% polyacrylamide gels (15 μg protein/lane) and electrotransferred to 0.45 μm Hybond ECL nitrocellulose membranes (Amersham Life Sciences) using the wet transblot method in transfer buffer (0.025 M Tris, 0.192 M glycine, 2.6 mM SDS, and 20%[vol/vol] methanol; pH 8.8) at 100 volts for 1 hour. […] Immunoblots were rinsed again as above and detected via an enhanced chemiluminescence method (ECL Western blotting detection system, Amersham Life Science, Buckinghamshire, England). […]

[3] = system: H520 lung carcinoma cells; assay: Trypan blue cytotoxicity, H520; assay type: cell-based, human; conditions: 0.625 μM disulfiram; 36 hours
Protocol: To assess for cytotoxicity, cells were plated at a density of 50,000 per well on 24 well plates and grown for 24 hours. Disulfiram was then added. After an additional 36 hours, medium was removed and replaced with DPBS containing 0.1% trypan blue. Cell death was assessed by counting the average number of trypan blue positive cells per 10×field in 5 random fields for 4 separate wells.

transcription factor binding to CRE ([1]; disulfiram 5 μM alone added to binding reaction): reduced
transcription factor binding to CRE, effect with GSH instead of DTT ([1]; disulfiram 5 μM alone): more pronounced
transcription factor binding to CRE, effect with GSH instead of DTT ([1]; disulfiram 5 μM and 1.6 μM CuSO4): more pronounced
transcription factor binding to CRE ([1]; disulfiram 5 μM and 1.6 μM CuSO4 added to binding reaction): reduced
Compound: CCN(CC)C(=S)SSC(=S)N(CC)CC [Disulfiram, tetraethylthiuram disulfide]
expression of p21WAF1/CIP1 [2]: no consistent effect
trypan blue positive cells [3]: 94±18 trypan blue positive cells per well
